Patent US8445521B2, “Synergistic antimicrobial composition” (Dow GLobal Technologies LLC, priority 2009, dated 2013)

Columns and labels:
[1] = tested on: Pseudomonas aeruginosa, ATCC 10145 and Staphylococcus aureus, ATCC 6538; assay: Biocidal efficacy (MBC, complete bacteria kill) against aerobic bacteria in contaminated NaCl solution; assay type: cell-based; conditions: 37° C., 24 hours
Experimental: A sterile NaCl solution (0.85%) was contaminated with Pseudomonas aeruginosa, ATCC 10145 and Staphylococcus aureus, ATCC 6538 at final bacterial concentration of ca. 10^6 CFU/mL. The aliquots of this contaminated water were then treated with NaOPP and Tris Nitro, or the NaOPP/Tris Nitro combination, NaOPP and DMOZ or the NaOPP/DMOZ combination at different active concentration levels. After the mixtures were incubated at 37° C. for 24 hours, the biocidal efficacy was determined by minimum tested biocide concentration for complete bacteria kill in the aliquots. Tables 4 and 5 summarize the efficacy of each biocide and their blends, and the Synergy Index of each combination.

[2] = tested on: oil field isolated anaerobic consortium, mainly SRB; assay: Biocidal efficacy (MBC, complete bacterial kill) against anaerobic bacteria in contaminated salt solution; assay type: cell-based, sulfate reducing bacteria (SRB); conditions: 40° C., 24 hours
Experimental: Inside an anaerobic chamber (BACTRON anaerobic chamber), a deaerated sterile salt solution (3.1183 g of NaCl, 1.3082 mg of NaHCO3, 47.70 mg of KCl, 72.00 mg of CaCl2, 54.49 mg of MgSO4, 172.28 mg of Na2SO4, 43.92 mg of Na2CO3 in 1 L water) was contaminated with an oil field isolated anaerobic consortium, mainly SRB, at final bacterial concentrations of 10^6 to 10^7 CFU/mL. The aliquots of this contaminated water were then treated with NaOPP and DMOZ, or the NaOPP/DMOZ combination, NaOPP and Tris Nitro, or the NaOPP/Tris Nitro combination, NaOPP and HHT, or the NaOPP/HHT combination at different active concentration levels. […] Tables 1-3 summarize the efficacy of each biocide and their blends, and the Synergy Index of each combination.

[3] = DMOZ alone or DMOZ part of NaOPP/DMOZ blend
[4] = NaOPP alone or NaOPP part of NaOPP/DMOZ blend
[5] = NaOPP alone or NaOPP part of NaOPP/Tris Nitro blend
[6] = Tris Nitro alone or Tris Nitro part of NaOPP/Tris Nitro blend

## CC1(C)COCN1 [DMOZ, 4,4-dimethyloxazolidine]
[1]; [3]
  Average MBC (active ppm) DMOZ: 86.1 active ppm
[2]; [3]
  MBC (active ppm) DMOZ: 74.1 active ppm

## OCCN1CN(CCO)CN(CCO)C1 [HHT, hexahydro-1,3,5-tris(2-hydroxyethyl)-s-triazine]
[2]; HHT alone or HHT part of NaOPP/HHT blend
  MBC (active ppm) HHT: 111.1 active ppm

## [Na+].[O-]c1ccccc1-c1ccccc1 [NaOPP, sodium o-phenylphenylate]
[1]; [4]
  Average MBC (active ppm) NaOPP: 292.9 active ppm
[1]; [5]
  MBC (active ppm) NaOPP: 266.3 active ppm
[2]; [4]
  MBC (active ppm) NaOPP: 333.3 active ppm
[2]; NaOPP alone or NaOPP part of NaOPP/HHT blend
  MBC (active ppm) NaOPP: 500 active ppm
[2]; [5]
  MBC (active ppm) NaOPP: 500 active ppm

## O=[N+]([O-])C(CO)(CO)CO [Tris Nitro, tris(hydroxymethyl)nitromethane]
[1]; [6]
  MBC (active ppm) Tris Nitro: 25.1 active ppm
[2]; [6]
  MBC (active ppm) Tris Nitro: 44.4 active ppm
